Measurements reported in ChEMBL document CHEMBL1201862, “PubChem BioAssay data set” (2004).
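Results reflect a 48-hour exposure of cells in 96-well plates to compound at five concentrations. Abbreviation: GI50, concentration required for 50% inhibition of growth.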 Active and inactive are the calls of the source. Cut-off read from the data, not from the text of the source: active = GI50 up to about 1.1 µM and inactive = higher.

Key:
Assay in all cases: NCI anticancer screen, dose series, 48 h
OVCAR-3 = system: OVCAR-3
HCT-15 = system: HCT-15
CCRF-CEM = system: CCRF-CEM
786-0 = system: 786-0
SK-MEL-5 = system: SK-MEL-5
DMS-114 = system: DMS-114
SNB-19 = system: SNB-19
LXFL 529 = system: LXFL 529
SW-620 = system: SW-620
DLD-1 = system: DLD-1
SF-268 = system: SF-268
A498 = system: A498
OVCAR-4 = system: OVCAR-4
LOX IMVI = system: LOX IMVI
UACC-62 = system: UACC-62
HCC 2998 = system: HCC 2998
ACHN = system: ACHN
A549 = system: A549
SR = system: SR
CAKI-1 = system: CAKI-1
SK-MEL-28 = system: SK-MEL-28
SNB-75 = system: SNB-75
NCI-H522 = system: NCI-H522
SN12C = system: SN12C
TK-10 = system: TK-10
MOLT-4 = system: MOLT-4
NCI-H460 = system: NCI-H460
HOP-18 = system: HOP-18
HOP-62 = system: HOP-62
M14 = system: M14
HCT-116 = system: HCT-116
M19-MEL = system: M19-MEL
UO-31 = system: UO-31
SK-MEL-2 = system: SK-MEL-2
RXF 393 = system: RXF 393
RPMI-8226 = system: RPMI-8226
SK-OV-3 = system: SK-OV-3
Malme-3M = system: Malme-3M
COLO 205 = system: COLO 205
HOP-92 = system: HOP-92
IGROV-1 = system: IGROV-1
U-251 = system: U-251
SF-295 = system: SF-295
XF498 = system: XF498
HL-60 = system: HL-60
EKVX = system: EKVX
KM-20L2 = system: KM-20L2
DMS-273 = system: DMS-273
K562 = system: K562
OVCAR-8 = system: OVCAR-8
NCI-H23 = system: NCI-H23
OVCAR-5 = system: OVCAR-5
NCI-H226 = system: NCI-H226
KM12 = system: KM12
HT-29 = system: HT-29
SNB-78 = system: SNB-78
SF-539 = system: SF-539
UACC-257 = system: UACC-257

CCOC(=O)c1cc2c(OCc3ccccc3)c(OC)cc3c2c(n1)N(c1ccc(OC)cc1)C(C)C3 (centres undefined)
GI50 (OVCAR-3): 23.2 µM (inactive) | GI50 (HCT-15): > 50 µM | GI50 (CCRF-CEM): > 50 µM (inactive) | GI50 (786-0): > 50 µM (inactive) | GI50 (SK-MEL-5): > 50 µM (inactive) | GI50 (DMS-114): 38.3 µM (inactive) | GI50 (SNB-19): > 50 µM (inactive) | GI50 (LXFL 529): 39.4 µM (inactive) | GI50 (SW-620): > 50 µM (inactive) | GI50 (DLD-1): > 50 µM (inactive) | GI50 (SF-268): > 50 µM (inactive) | GI50 (A498): > 50 µM (inactive) | GI50 (OVCAR-4): 10.4 µM (inactive) | GI50 (LOX IMVI): > 50 µM (inactive) | GI50 (UACC-62): 49.3 µM (inactive) | GI50 (HCC 2998): 44.4 µM (inactive) | GI50 (ACHN): > 50 µM (inactive) | GI50 (A549): > 50 µM (inactive) | GI50 (SR): > 50 µM (inactive) | GI50 (CAKI-1): 23.2 µM (inactive) | GI50 (SK-MEL-28): > 50 µM (inactive) | GI50 (SNB-75): > 50 µM (inactive) | GI50 (NCI-H522): 25.2 µM (inactive) | GI50 (SN12C): > 50 µM (inactive) | GI50 (TK-10): > 50 µM (inactive) | GI50 (MOLT-4): > 50 µM (inactive) | GI50 (NCI-H460): 49.9 µM (inactive) | GI50 (HOP-18): > 50 µM (inactive) | GI50 (HOP-62): > 50 µM (inactive) | GI50 (M14): > 50 µM (inactive) | GI50 (HCT-116): > 50 µM (inactive) | GI50 (M19-MEL): > 50 µM (inactive) | GI50 (UO-31): > 50 µM (inactive) | GI50 (SK-MEL-2): > 50 µM (inactive) | GI50 (RXF 393): 33.6 µM (inactive) | GI50 (RPMI-8226): 2.69 µM (inactive) | GI50 (SK-OV-3): > 50 µM (inactive) | GI50 (Malme-3M): > 50 µM (inactive) | GI50 (COLO 205): > 50 µM (inactive) | GI50 (HOP-92): 8.91 µM (inactive) | GI50 (IGROV-1): > 50 µM (inactive) | GI50 (U-251): 28.6 µM (inactive) | GI50 (SF-295): > 50 µM (inactive) | GI50 (XF498): > 50 µM (inactive) | GI50 (HL-60): 45.6 µM (inactive) | GI50 (EKVX): > 50 µM (inactive) | GI50 (KM-20L2): 2.47 µM (inactive) | GI50 (DMS-273): > 50 µM (inactive) | GI50 (K562): > 50 µM (inactive) | GI50 (OVCAR-8): > 50 µM (inactive) | GI50 (NCI-H23): > 50 µM (inactive) | GI50 (OVCAR-5): > 50 µM (inactive)

CC1CCCC(C(=O)/C(=C/c2cccc(Cl)c2)C(=O)C(=O)O)C1 (centres undefined)
GI50 (OVCAR-3): 24.7 µM (inactive) | GI50 (HCT-15): 13.8 µM | GI50 (CCRF-CEM): 19.3 µM (inactive) | GI50 (786-0): 17.9 µM (inactive) | GI50 (SK-MEL-5): 68.2 µM (inactive) | GI50 (DMS-114): 21 µM (inactive) | GI50 (SNB-19): 33.8 µM (inactive) | GI50 (LXFL 529): 19.7 µM (inactive) | GI50 (SW-620): 14.5 µM (inactive) | GI50 (DLD-1): 20 µM (inactive) | GI50 (SF-268): 42.1 µM (inactive) | GI50 (A498): > 100 µM (inactive) | GI50 (OVCAR-4): 37.8 µM (inactive) | GI50 (UACC-62): 36.9 µM (inactive) | GI50 (HCC 2998): 12.8 µM (inactive) | GI50 (ACHN): 39.4 µM (inactive) | GI50 (A549): 60.7 µM (inactive) | GI50 (CAKI-1): 33.3 µM (inactive) | GI50 (SK-MEL-28): 37 µM (inactive) | GI50 (SNB-75): 29.9 µM (inactive) | GI50 (NCI-H522): 0.0161 µM (active) | GI50 (SN12C): 72.1 µM (inactive) | GI50 (TK-10): > 100 µM (inactive) | GI50 (MOLT-4): 19 µM (inactive) | GI50 (NCI-H460): 33 µM (inactive) | GI50 (HOP-18): 91 µM (inactive) | GI50 (NCI-H226): > 100 µM (inactive) | GI50 (KM12): 15.6 µM (inactive) | GI50 (HT-29): 18.4 µM (inactive) | GI50 (HOP-62): > 100 µM (inactive) | GI50 (M14): 29.7 µM (inactive) | GI50 (SNB-78): 55.2 µM (inactive) | GI50 (HCT-116): 13.8 µM (inactive) | GI50 (M19-MEL): 18.7 µM (inactive) | GI50 (UO-31): 61.2 µM (inactive) | GI50 (SF-539): 27.5 µM (inactive) | GI50 (RPMI-8226): 14.7 µM (inactive) | GI50 (SK-OV-3): 81.5 µM (inactive) | GI50 (Malme-3M): > 100 µM (inactive) | GI50 (UACC-257): 59.8 µM (inactive) | GI50 (COLO 205): 37.3 µM (inactive) | GI50 (HOP-92): 39 µM (inactive) | GI50 (IGROV-1): 30.9 µM (inactive) | GI50 (U-251): 17.3 µM (inactive) | GI50 (SF-295): 50.4 µM (inactive) | GI50 (HL-60): 20 µM (inactive) | GI50 (EKVX): 47.1 µM (inactive) | GI50 (KM-20L2): 25.9 µM (inactive) | GI50 (DMS-273): 34.8 µM (inactive) | GI50 (K562): 19.5 µM (inactive) | GI50 (OVCAR-8): 20.3 µM (inactive) | GI50 (NCI-H23): 39.5 µM (inactive) | GI50 (OVCAR-5): > 100 µM (inactive)

NC(CCSCC(F)(F)F)C(=O)O (centres undefined)
GI50 (OVCAR-3): > 100 µM (inactive) | GI50 (HCT-15): > 100 µM | GI50 (CCRF-CEM): > 100 µM (inactive) | GI50 (786-0): > 100 µM (inactive) | GI50 (SK-MEL-5): > 100 µM (inactive) | GI50 (DMS-114): > 100 µM (inactive) | GI50 (SNB-19): > 100 µM (inactive) | GI50 (LXFL 529): > 100 µM (inactive) | GI50 (SW-620): > 100 µM (inactive) | GI50 (DLD-1): > 100 µM (inactive) | GI50 (SF-268): > 100 µM (inactive) | GI50 (A498): > 100 µM (inactive) | GI50 (OVCAR-4): > 100 µM (inactive) | GI50 (LOX IMVI): > 100 µM (inactive) | GI50 (UACC-62): > 100 µM (inactive) | GI50 (HCC 2998): > 100 µM (inactive) | GI50 (ACHN): > 100 µM (inactive) | GI50 (A549): > 100 µM (inactive) | GI50 (SR): > 100 µM (inactive) | GI50 (CAKI-1): > 100 µM (inactive) | GI50 (SK-MEL-28): > 100 µM (inactive) | GI50 (SNB-75): > 100 µM (inactive) | GI50 (NCI-H522): > 100 µM (inactive) | GI50 (SN12C): > 100 µM (inactive) | GI50 (TK-10): > 100 µM (inactive) | GI50 (MOLT-4): > 100 µM (inactive) | GI50 (NCI-H460): > 100 µM (inactive) | GI50 (HOP-18): > 100 µM (inactive) | GI50 (NCI-H226): > 100 µM (inactive) | GI50 (KM12): > 100 µM (inactive) | GI50 (HT-29): > 100 µM (inactive) | GI50 (HOP-62): > 100 µM (inactive) | GI50 (M14): > 100 µM (inactive) | GI50 (SNB-78): > 100 µM (inactive) | GI50 (HCT-116): > 100 µM (inactive) | GI50 (M19-MEL): > 100 µM (inactive) | GI50 (UO-31): > 100 µM (inactive) | GI50 (RXF 393): > 100 µM (inactive) | GI50 (SF-539): > 100 µM (inactive) | GI50 (Malme-3M): > 100 µM (inactive) | GI50 (UACC-257): > 100 µM (inactive) | GI50 (COLO 205): > 100 µM (inactive) | GI50 (HOP-92): > 100 µM (inactive) | GI50 (IGROV-1): > 100 µM (inactive) | GI50 (U-251): > 100 µM (inactive) | GI50 (SF-295): > 100 µM (inactive) | GI50 (HL-60): > 100 µM (inactive) | GI50 (EKVX): > 100 µM (inactive) | GI50 (KM-20L2): > 100 µM (inactive) | GI50 (DMS-273): > 100 µM (inactive) | GI50 (K562): > 100 µM (inactive) | GI50 (OVCAR-8): > 100 µM (inactive) | GI50 (NCI-H23): > 100 µM (inactive) | GI50 (OVCAR-5): > 100 µM (inactive)
